Test results published in PMC6917776, “Discovery of a chemical probe for PRDM9” (Nature Communications, 2019).

What was measured:
Assay in all cases: CelltiterGlo viability cell assay
Format in all cases: cell-based
CAL851 = settings: up to 30 μM; days 3 and 6; Prdm9 expressing line
Experimental: (§1) Supplementary Figure 13. […] Viability of
(§2) (a) Multiple Myeloma lines and (b) Breast Cancer cell lines following 3 or 6 days treatment with […]
(§3) manufacturer’s instructions as described in the Supplementary methods. Data are normalized to DMSO control. N=3 biological replicates, +/- SEM. Source data are provided as a Source Data […]
(§4) CelltiterGlo viability cell assay
(§5) Cells were seeded in 96 well plates at per-well densities of 10000 (MDA-MB436, ATCC-HTB130), 15000 (8226, kind gift from Rodger Tiedemann, Princess Margaret Cancer Centre), […]
(§6) kind gift from Rodger Tiedemann, Princess Margaret Cancer Centre) and 50000 (CAL851, kind gift from Mathieu Lupien, Princess Margaret Cancer Centre) and were treated at increasing concentrations of compounds ranging from 0.01 μM to 30 μM and assessed for proliferation using CelltiterGlo (Promega) following manufacturer’s instructions, as readout on days 3 and 6 as indicated. All cell lines were mycoplasma negative, as determined by MycoAlert™ Mycoplasma Detection Kit(Lonza). […]

HCC1143 = settings: up to 30 μM; days 3 and 6; matched control line
Experimental: as §1, §2, §3, §4, §5, §6

HCC1806 = settings: up to 30 μM; days 3 and 6; Prdm9 expressing line
Experimental: as §1, §2, §3, §4, §5, §6

MDA-MB-436 = settings: up to 30 μM; days 3 and 6; matched control line
Experimental: as §1, §2, §3, §4, §5, §6

RPMI-8226 = settings: up to 30 μM; days 3 and 6; matched control line
Experimental: as §1, §2, §3, §4, §5, §6

SKMM2 = settings: up to 30 μM; days 3 and 6; Prdm9 expressing line
Experimental: as §1, §2, §3, §4, §5, §6

Measured: Effect on proliferation (in words)

COc1cc(OC)cc(-c2noc(N3CCN(C)C4(CCN(c5ccnc(C)c5)CC4)C3)n2)c1 [MRK-740]
did not have any significant effect: all assays above
